How the values were obtained:
β-cardiac myosin = biological target: T1, β-cardiac myosin (Homo sapiens, UniProt P12883); experiment: NADH-linked actin-activated ATPase assay with purified recombinant S1; format: biochemical
T1 construct: gene MYH7; with actin (porcine ventricles); endogenous C2C12 light chains
Text: NADH-linked actin-activated ATPase assay with purified recombinant S1 on β-cardiac myosin | we measured the IC50 value for β-cardiac myosin S1.

Myh7b = biological target: T2, Myh7b (Homo sapiens, UniProt A7E2Y1); experiment: as above; format: biochemical
T2 construct: with actin (porcine ventricles); endogenous C2C12 light chains
T2 sequence (A7E2Y1 43-892): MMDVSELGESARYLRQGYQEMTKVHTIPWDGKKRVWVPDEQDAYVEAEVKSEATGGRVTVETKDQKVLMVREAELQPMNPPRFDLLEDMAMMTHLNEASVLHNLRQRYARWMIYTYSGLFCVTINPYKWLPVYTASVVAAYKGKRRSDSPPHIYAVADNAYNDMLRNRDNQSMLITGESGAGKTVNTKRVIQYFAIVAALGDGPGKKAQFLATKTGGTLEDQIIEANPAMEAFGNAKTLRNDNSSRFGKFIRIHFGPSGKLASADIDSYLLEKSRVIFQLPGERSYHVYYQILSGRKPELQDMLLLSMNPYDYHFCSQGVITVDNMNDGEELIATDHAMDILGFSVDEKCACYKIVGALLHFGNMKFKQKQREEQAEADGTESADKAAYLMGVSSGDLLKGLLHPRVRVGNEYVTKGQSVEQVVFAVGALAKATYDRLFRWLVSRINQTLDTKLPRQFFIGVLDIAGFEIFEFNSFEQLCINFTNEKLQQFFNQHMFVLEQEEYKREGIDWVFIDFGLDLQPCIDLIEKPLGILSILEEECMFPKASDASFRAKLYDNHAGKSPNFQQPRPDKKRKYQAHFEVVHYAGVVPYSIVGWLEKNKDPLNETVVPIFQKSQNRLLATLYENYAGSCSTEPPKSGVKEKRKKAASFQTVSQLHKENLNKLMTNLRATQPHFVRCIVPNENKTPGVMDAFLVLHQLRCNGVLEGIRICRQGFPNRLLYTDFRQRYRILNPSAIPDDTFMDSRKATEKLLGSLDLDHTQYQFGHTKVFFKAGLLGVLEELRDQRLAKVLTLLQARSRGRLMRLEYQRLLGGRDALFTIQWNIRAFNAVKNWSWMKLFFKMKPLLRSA

T1 sequence (P12883 1-842): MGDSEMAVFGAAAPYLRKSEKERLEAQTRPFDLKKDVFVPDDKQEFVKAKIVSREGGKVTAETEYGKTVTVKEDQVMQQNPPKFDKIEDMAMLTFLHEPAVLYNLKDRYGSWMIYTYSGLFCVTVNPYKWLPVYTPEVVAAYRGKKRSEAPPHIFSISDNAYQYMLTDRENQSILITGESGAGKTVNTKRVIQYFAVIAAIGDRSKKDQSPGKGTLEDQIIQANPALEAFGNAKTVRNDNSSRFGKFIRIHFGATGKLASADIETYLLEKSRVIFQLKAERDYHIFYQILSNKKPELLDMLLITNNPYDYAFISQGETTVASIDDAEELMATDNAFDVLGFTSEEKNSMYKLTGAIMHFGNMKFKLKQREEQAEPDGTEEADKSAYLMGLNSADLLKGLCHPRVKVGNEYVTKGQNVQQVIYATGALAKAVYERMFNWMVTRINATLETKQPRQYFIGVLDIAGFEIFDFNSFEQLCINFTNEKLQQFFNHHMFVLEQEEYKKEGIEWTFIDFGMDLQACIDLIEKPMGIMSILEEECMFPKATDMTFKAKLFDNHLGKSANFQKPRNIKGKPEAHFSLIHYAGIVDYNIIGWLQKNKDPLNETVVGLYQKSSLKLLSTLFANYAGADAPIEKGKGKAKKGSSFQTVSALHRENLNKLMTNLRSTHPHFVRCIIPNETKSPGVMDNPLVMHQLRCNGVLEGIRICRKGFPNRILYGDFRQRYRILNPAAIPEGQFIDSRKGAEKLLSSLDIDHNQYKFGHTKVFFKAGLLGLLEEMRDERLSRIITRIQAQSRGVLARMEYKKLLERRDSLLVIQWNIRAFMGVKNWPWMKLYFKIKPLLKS

IC50 (β-cardiac myosin): 1120 ± 290 nM
IC50 (Myh7b): 360 ± 80 nM
Structure (SMILES): Cc1ccc2c(c1)C(=O)[C@]1(O)CCN(c3ccccc3)C1=N2 [Blebbistatin]

Reference: paper PMC9995120, “Drug specificity and affinity are encoded in the probability of cryptic pocket opening in myosin motor domains” (eLife, 2023)
